This is an account of results in ChEMBL document CHEMBL1154094, “Carbonic anhydrase inhibitors. Aromatic/heterocyclic sulfonamides incorporating phenacetyl, pyridylacetyl and thienylacetyl tails act as potent inhibitors of human mitochondrial isoforms VA and VB” (Bioorg Med Chem, 2009).

The target of assay [1] is Carbonic anhydrase 5A, mitochondrial (Homo sapiens, UniProt P35218).
Assay [2] concerns the target Carbonic anhydrase 5B, mitochondrial (Homo sapiens, UniProt Q9Y2D0).

For orientation: Ki means a measure of affinity in units of concentration, obtained from inhibition or displacement.

Carbonic anhydrase 5B, mitochondrial, sequence (Q9Y2D0 whole entry): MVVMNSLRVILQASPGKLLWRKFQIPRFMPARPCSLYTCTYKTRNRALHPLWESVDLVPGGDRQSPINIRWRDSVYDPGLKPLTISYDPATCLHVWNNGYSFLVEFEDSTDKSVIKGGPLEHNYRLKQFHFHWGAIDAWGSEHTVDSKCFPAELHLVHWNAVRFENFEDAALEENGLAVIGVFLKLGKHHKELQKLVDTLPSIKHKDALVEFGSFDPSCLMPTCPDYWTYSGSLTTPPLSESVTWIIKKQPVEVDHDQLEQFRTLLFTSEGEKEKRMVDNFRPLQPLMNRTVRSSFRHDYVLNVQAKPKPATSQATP
Carbonic anhydrase 5A, mitochondrial, sequence (P35218 whole entry): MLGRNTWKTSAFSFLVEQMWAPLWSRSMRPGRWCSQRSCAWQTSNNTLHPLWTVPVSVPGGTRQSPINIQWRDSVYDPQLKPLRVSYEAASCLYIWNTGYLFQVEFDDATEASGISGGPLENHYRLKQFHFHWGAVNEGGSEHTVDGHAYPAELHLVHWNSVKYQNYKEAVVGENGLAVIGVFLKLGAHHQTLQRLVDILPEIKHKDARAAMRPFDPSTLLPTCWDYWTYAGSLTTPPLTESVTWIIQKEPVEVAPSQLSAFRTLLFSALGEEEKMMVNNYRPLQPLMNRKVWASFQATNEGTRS

Regarding `NS(=O)(=O)c1ccc(NC(=O)Cc2cccs2)cc1`, the Ki in assay [1] came to 7.2 nM; in assay [2], 7 nM.

Take `NS(=O)(=O)c1ccc(CNC(=O)Cc2cccs2)cc1`: the Ki in assay [1] came to 9.1 nM; in assay [2], 7.2 nM.

Consider `NS(=O)(=O)c1ccc(NC(=O)Cc2ccccc2)cc1`, for which the values for the Ki in assay [1] and in assay [2] were 6.7 nM and 7.9 nM, respectively.

Turning to `NS(=O)(=O)c1ccc(CCNC(=O)Cc2cccs2)cc1`, the results for the Ki in assay [1] and in assay [2] were 10.2 nM and 8 nM, respectively.
